# What was measured:
# [1] = system: Primary CD4 T cells from ART-suppressed HIV positive patients; assay: Viability by trypan blue exclusion of CD4 T cells from ART-suppressed HIV positive patients; assay type: cell-based, human; details: bulk primary CD4 T cells from HIV infected ART suppressed patients; 1 μM; 24 hours
# Method: FIGS. 11A-11D. […] FIG. 11A, Jurkat T cells pretreated with increasing concentrations of venetoclax or diluent DMSO were transfected with EGFP-Casp8p41, vector control, or no DNA, and assayed for cell death by TUNEL. Data are representative of three independent experiments. FIG. 11B, Primary CD4 T cells from seven uninfected donors were treated with venetoclax (1 μM) or diluent, and assayed for cell viability by flow cytometry over 5 days. FIG. 11C, Primary CD4 T cells from four uninfected donors were stimulated with phytohemagglutinin (2 μg/mL) in the presence of venetoclax (1 μM) or diluent and assayed for proliferation by CFSE staining. FIG. 11D, Primary CD4 T cells from seven ART-suppressed HIV positive patients were treated with venetoclax (1 μM) or DMSO control for 24 hours and assessed for viability by trypan blue exclusion.
# HIV-1IIIb = assay: Acute HIVIIIb infection of primary CD4 T cells in vitro (viability, p24, cell associated HIV DNA); assay type: cell-based
# Excerpt: (§1) Jurkat cells and HEK 293T cells were obtained from American Type Culture Collection (Manassas, Va.). Jurkat/Bcl-2 cells were created by transfecting Jurkat with a pcDNA-3 encoding Bcl-2 (obtained from Dr. Stan Korsmeyer), selecting for 30 days, and assessing Bcl-2 expression by immunoblotting. HIV-uninfected PBMCs were harvested by ficoll gradient centrifugation from Leukocyte Reduction System apheresis chambers provided by healthy volunteer blood donors. […]
# Immunophenotyping of T cell subsets was performed using multicolor flow cytometry with monoclonal antibodies to human CD3 (Alexa700, BD Pharmingen), CD4 (FITC, BD Pharmingen), CD8 (Pacific Blue, BD Pharmingen), CD27 (PE, BD Pharmingen), and CD45RO (ECD, Beckman Coulter). […] Intracellular expression of Casp8p41 was assessed as described elsewhere (Cummins et al., AIDS Res. Hum. Retroviruses, 30:476-479 (2014)). Cell death was measured using LIVE/DEAD® Fixable Aqua dead cell stain (Invitrogen) or TUNEL (Roche) according to manufacturers' protocols. Cell proliferation was measured using a CellTrace™ CFSE Cell Proliferation Kit (Life Technologies) according to manufacturer's protocol. […] FACS data were analyzed using FlowJo software (Tree Star Inc). […]
# [2] = cited from earlier work
# [3] = system: Primary CD4 T cells from uninfected donors; assay: Mitogen-induced proliferation of uninfected CD4 T cells by CFSE staining; assay type: cell-based, human; details: phytohemagglutinin, 1 μM, Day 3
# Excerpt: as §1
# (§2) Immunophenotyping of T cell subsets was performed using multicolor flow cytometry with monoclonal antibodies to human CD3 (Alexa700, BD Pharmingen), CD4 (FITC, BD Pharmingen), CD8 (Pacific Blue, BD Pharmingen), CD27 (PE, BD Pharmingen), and CD45RO (ECD, Beckman Coulter). […] Intracellular expression of Casp8p41 was assessed as described elsewhere (Cummins et al., AIDS Res. Hum. Retroviruses, 30:476-479 (2014)). Cell death was measured using LIVE/DEAD® Fixable Aqua dead cell stain (Invitrogen) or TUNEL (Roche) according to manufacturers' protocols. Cell proliferation was measured using a CellTrace™ CFSE Cell Proliferation Kit (Life Technologies) according to manufacturer's protocol. […] FACS data were analyzed using FlowJo software (Tree Star Inc).
# [4] = system: latently HIV infected CD4 T cells; assay: Ex vivo HIV reactivation (αCD3/αCD28) in CD4 T cells from suppressed HIV-infected patients; assay type: cell-based, human
# Method: FIGS. 10A-10E. Selective Bcl-2 inhibition reduces HIV DNA associated with cells after viral reactivation ex vivo. […] After 72 hours, cell associated HIV DNA was measured. FIG. 10B, Freshly obtained peripheral CD4 T cells from an additional 16 suppressed HIV-infected patients were treated with ABT-199 or DMSO followed by αCD3/αCD28 for 72 hours before cell associated HIV DNA was measured. Depicted is the ratio of HIV DNA in ABT-199 treated vs. diluent treated samples for each patient with measurable HIV DNA in the diluent sample (n=11). FIG. 10C, Primary CD4 T cells from HIV-infected subjects were treated with ABT-199 or diluent and assayed for intracellular Casp8p41 and active caspase 3 in the TCM subset. Representative data of three independent subjects. FIG. 10D, Primary CD4 T cells from four HIV-infected subjects were treated with venetoclax or diluent and induced to reactivate HIV using CD3/CD28, and cell death measured in HIV P24 positive or negative cells using activated caspase 3 staining. FIG. 10E, HIV RNA was measured in cell culture supernatant from 6 of the 11 patient experiments from FIG. 10B.
# Jurkat and Jurkat/Bcl-2 cells were infected overnight, while primary PHA-activated CD4 T cells were infected for 6 hours with HIV-1IIIb (NIH AIDS Reagent Program). Aliquots of the same infectious supernatant were used for all experiments. Cells were then washed three times and incubated in fresh medium. At the indicated time points, HIV-1 p24 in the cell culture supernatant was measured by RETROTEK™ ELISA kits (Zeptometrix Corporation) according to manufacturer's protocol. […] Briefly, total DNA was extracted using the Qiagen DNeasy Blood and Tissue kit (Hilden, Germany) and analyzed by a real-time polymerase chain reaction (PCR) assay specific for HIV-LTR and β-globin. […] Total HIV-1 DNA was compared and normalized with genomic DNA, determined by β-globin. HIV-1 proviral DNA levels were expressed as HIV-1 copies/β-globin genomic equivalent of 10^6 cells.
# [5] = system: Primary CD4 T cells from uninfected donors; assay: Viability of primary uninfected CD4 T cells by flow cytometry; assay type: cell-based, human; details: N=7, 1 μM, Day 5
# Excerpt: as §1, §2
# [6] = in vivo; cited from earlier work
# Jurkat T cells = assay: TUNEL cell death in Jurkat T cells transfected with EGFP-Casp8p41, vector control or no DNA; assay type: cell-based; details: Jurkat cells expressing eGFP-Casp8p41, 1 μM
# Method: HEK 293T cells were transfected using Lipofectamine (Invitrogen, Carlsbad, Calif.) according to manufacturer's protocol. Jurkat cells were transfected using a square wave electroporator (BXT, San Diego, Calif.) at 320 V. Immunophenotyping of T cell subsets was performed using multicolor flow cytometry with monoclonal antibodies to human CD3 (Alexa700, BD Pharmingen), CD4 (FITC, BD Pharmingen), CD8 (Pacific Blue, BD Pharmingen), CD27 (PE, BD Pharmingen), and CD45RO (ECD, Beckman Coulter). Central memory T cells (TCM) were defined as CD3^+CD4^+CD27^+CD45RO^+, and effector memory T cells (TEM) were defined as CD3^+CD4^+CD27^−CD45RO^+/− (Brenchley et al., J. Exp. Med., 200:749-759 (2004)). Intracellular expression of Casp8p41 was assessed as described elsewhere (Cummins et al., AIDS Res. Hum. Retroviruses, 30:476-479 (2014)). Cell death was measured using LIVE/DEAD® Fixable Aqua dead cell stain (Invitrogen) or TUNEL (Roche) according to manufacturers' protocols. Cell proliferation was measured using a CellTrace™ CFSE Cell Proliferation Kit (Life Technologies) according to manufacturer's protocol. FACS analysis was performed on either a FACScan or LSRII flow cytometer (BD Biosciences) based on multiparameter needs. FACS data were analyzed using FlowJo software (Tree Star Inc).
# [7] = system: Jurkat T cells stably expressing eGFP; assay: Apoptosis and marker loss in Jurkat T cells stably expressing eGFP treated with CPT; assay type: cell-based
# Method: FIGS. 12A-12G. Apoptotic cell death is associated with loss of protein and mRNA markers. Jurkat T cells stably expressing eGFP were treated with DMSO or CPT and assessed for cell viability by ATP content (FIG. 12A) and light scatter (FIG. 12B) over time. FIG. 12C, Expression of eGFP was measured by flow cytometry. FIG. 12D, Actin mRNA expression was assessed by qRT-PCR and expressed as mean Ct values normalized to baseline DMSO control. FIGS. 12E-12G, Cell death was assessed by active-caspase 3 expression (FIG. 12E), TUNEL (FIG. 12F), and LIVE/DEAD viability stain (FIG. 12G) and compared between eGFP positive and eGFP negative cells. FIG. 12A-12D values represent mean (range) of two independent experiments. FIGS. 12E-12G are representative of two independent experiments.
# If BCL-2 neutralizes Casp8p41, then antagonizing BCL-2 should augment Casp8p41-induced killing, including when Casp8p41 is generated by latently HIV infected cells that reactivate the virus. Before testing this possibility, whether select markers (protein or nucleic acid based) remain detectable was first assessed when the cell of interest is undergoing death. Jurkat T cells stably expressing eGFP were treated with vehicle control or the cytotoxic quinolone alkaloid CPT to induce apoptosis, then examined for expression of eGFP (as a prototypic cytoplasmic protein) and actin mRNA (as a prototypic mRNA) over time.
# Bcl-2 = assay: SPR binding of Casp8p41 to purified recombinant Bcl-2; details: Bcl-2 Arg146Ala vs Bcl-2, SPR
# Method: After plasmids encoding GST tagged proteins were transformed into E. coli BL21 or DH5α by heat shock, bacteria were grown to an optical density of 0.8 and induced with 1 mM IPTG for 3 hours at 37° C. Bacteria were disrupted by freezing and thawing in calcium- and magnesium-free Dulbecco's phosphate buffered saline (PBS) containing 0.1% Triton X-100, 2 μg/mL aprotinin, 10 μg/mL leupeptin, 2 μg/mL pepstatin, and 1 mM PMSF, then sonicated three times for 15 sec/min on ice. GST-tagged proteins were purified with glutathione-agarose (Thermo Fisher Scientific, Rockford, Ill.).
# Proteins for SPR were further purified by FPLC on Superdex 5200, concentrated in a centrifugal concentrator (Centricon, Millipore), dialyzed against Biacore buffer (10 mM HEPES (pH 7.4), 150 mM NaCl, 0.05 mM EDTA, and 0.005% (w/v) Polysorbate 20) and stored at 4° C. for <48 hours before use. Binding assays were performed at 25° C. on a Biacore 3000 biosensor after proteins were immobilized on a CMS chip (GE Healthcare). Ligands were injected at 30 μL/minute for 1 minute in Biacore buffer. Bound protein was allowed to dissociate in Biacore buffer at 30 μL/minute for 10 minutes and then desorbed with 2 M MgCl2. Binding kinetics were derived using BIA evaluation software (Biacore, Uppsala, Sweden).
compound,measurement,setting,value
CC1(C)CCC(CN2CCN(c3ccc(C(=O)NS(=O)(=O)c4ccc(NCC5CCOCC5)c([N+](=O)[O-])c4)c(Oc4cnc5[nH]ccc5c4)c3)CC2)=C(c2ccc(Cl)cc2)C1 [venetoclax],"viability, mean difference vs DMSO control",[1],−4.7±1.6 % viable
same,survival or mitogen-induced proliferation of mock-infected CD4 T cells,HIV-1IIIb,had no effect
same,cases of dose limiting neutropenia,[2]; 40 NHL patients receiving monotherapy,2 cases
same,tolerability in early phase clinical trials,"[2]; human, in vivo",well tolerated
same,mean difference in percent CFSE low cells,[3],-1.1±7.9%
same,samples exhibiting a decrease of cell associated HIV DNA,"[4]; freshly isolated primary CD4 T cell samples, 8 of 11",73%
same,median cell death (active caspase 3) in p24− cells,"[4]; αCD3/αCD28 reactivated, control 2.5%, P=0.189",10.3%
same,proportion of HIV p24+ CD4+ cells that are active caspase 3+,"[4]; αCD3/αCD28 reactivated, control 23%, P=0.026",47 % active caspase 3+
same,"viability, mean difference vs control treated cells",[5],−7.2±4.8%
same,peak plasma levels,[6],up to 5 μM
same,"increase in cell death, mean difference vs diluent",Jurkat T cells,25.7±10.3%
"CC[C@@]1(O)C(=O)OCc2c1cc1n(c2=O)Cc2cc3ccccc3nc2-1 [CPT, camptothecin]",eGFP negative cells,[7]; by 48 hours,97%
same,cell viability by cellular ATP content and light scatter,[7]; compared to diluent-treated cells,decreased cell viability
same,reduction of detectable actin message compared to diluent control,[7]; qRT-PCR,34%
same,detectable eGFP (eGFP+ cells),[7]; {},17 % eGFP+
DMNLLDIFIEMEKRVILGEGKLDILKRVCAQ (Casp8p41 BH3-like peptide) [Casp8p41 activator peptide],decrease of affinity of Bcl-2 by substitution of Ala for Bcl-2 Arg146,Bcl-2,250 fold
